According to patent EP4685152A1, “PEPTIDE BINDING TO LAG-3 AND USE THEREOF” (Kyungpook National University Industry-Academic Cooperation …, priority 2023, dated 2024):

Assays:
LAG-3 [1] = biological target: T1, LAG-3 (Homo sapiens, UniProt P18627); assay: Peptide binding to LAG-3-transfected cells by immunofluorescence microscopy; type: cell-based; parameters: GFP; host or cells: HEK-293T; details: red fluorescent (TAMRA) peptide 25 µM; LAG-3-transfected Hek-293T cells compared to non-transfected control cells
T1 sequence (P18627 23-525): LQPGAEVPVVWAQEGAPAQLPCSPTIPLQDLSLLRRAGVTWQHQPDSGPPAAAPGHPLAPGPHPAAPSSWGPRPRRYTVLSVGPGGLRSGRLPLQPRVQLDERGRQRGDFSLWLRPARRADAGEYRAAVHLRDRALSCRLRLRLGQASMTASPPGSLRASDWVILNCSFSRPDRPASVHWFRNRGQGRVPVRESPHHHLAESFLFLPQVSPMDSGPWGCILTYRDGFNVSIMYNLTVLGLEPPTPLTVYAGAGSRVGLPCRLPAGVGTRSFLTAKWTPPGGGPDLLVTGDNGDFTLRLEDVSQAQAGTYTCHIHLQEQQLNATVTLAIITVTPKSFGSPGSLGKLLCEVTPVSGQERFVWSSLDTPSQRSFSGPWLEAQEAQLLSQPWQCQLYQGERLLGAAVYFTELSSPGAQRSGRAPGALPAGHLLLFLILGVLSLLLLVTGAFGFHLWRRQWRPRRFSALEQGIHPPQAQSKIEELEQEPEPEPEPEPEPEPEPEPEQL
Protocol: Hek-293T cells (1.25×10^5) were seeded in 4-well chamber slides, transfected with human LAG-3 plasmid, and […]. Non-transfected cells were used as a control group. The next day, cells were washed twice with phosphate buffer and reacted with 1% BSA at room temperature for 1 hour to reduce nonspecific binding of peptides. Afterwards, cells were reacted with TAMRA-conjugated peptide at a concentration of 25 µM at 4°C for 1 hour. After fixation, cells were washed, counterstained with DAPI, treated with an anti-fade reagent to preserve fluorescence, and analyzed using a confocal microscope (Nanoscope System).
(§1) To determine the degree of binding of the peptide to LAG-3, a peptide labeled with a red fluorescent reagent was synthesized and treated in Hek-293T cells transfected with LAG-3 followed by observation under an immunofluorescence microscope. Non-transfected cells were used as a control group. Meanwhile, Jurkat T cells stimulated with PMA, ionomycin, and CQ to increase expression of LAG-3 were treated with the peptide, and binding was observed using a flow cytometer. Unstimulated Jurakt T cells were used as a control group.

LAG-3 [2] = biological target: T1, LAG-3; assay: Competitive binding with LAG-3 blocking antibody, flow cytometry on stimulated Jurkat T cells; type: cell-based; details: LAG-3 blocking antibody 10 µg/ml first, then peptide 10 µM, compared to untreated control group
Protocol: Similarly, for flow cytometry, Jurkat T cells (1×10^6) stimulated with PMA (50 ng/ml), ionomycin (1 µg/ml), and CQ (100 µM) were harvested and suspended in culture medium containing 1% BSA for 1 hour at room temperature to block nonspecific binding. Afterwards, cells were blocked with human LAG-3 blocking antibody (10 µg/ml) at 4°C for 30 minutes and then reacted with fluorescein isothiocyanate-conjugated peptide at a concentration of 10 µM at 4°C for 1 hour. After washing several times, 300 µl of cell suspension suspended in phosphate buffer was applied to Attune NxT flow cytometry (Thermo Fisher Scientific).

LAG-3 [3] = biological target: T1, LAG-3; assay: Competitive binding with LAG-3 blocking antibody, immunofluorescence microscopy on LAG-3-transfected cells; type: cell-based; parameters: GFP; host or cells: HEK-293T; details: LAG-3-transfected Hek-293T cells; LAG-3 blocking antibody 10 µg/ml first, then peptide 25 µM; compared to group without antibody
Protocol: Hek-293T cells (1.25×10^5) were seeded in 4-well chamber slides and transfected with human LAG-3 plasmid, and the next day, the cells were washed twice with phosphate buffer and reacted with 1% BSA at room temperature for 1 hour to reduce nonspecific binding. Afterwards, cells were blocked with human LAG-3 blocking antibody (10 µg/ml) at 4°C for 30 minutes, and then reacted with TAMRA-conjugated peptide at a concentration of 25 µM at 4°C for 1 hour. After fixation, cells were washed, counterstained with DAPI, treated with an anti-fade reagent to preserve fluorescence, and analyzed using a confocal microscope (Nanoscope System).

LAG-3 [4] = biological target: T1, LAG-3; assay: Peptide binding to stimulated Jurkat T cells by flow cytometry; type: cell-based; details: FITC-labeled peptide 10 µM; Jurkat T cells stimulated with PMA, ionomycin, CQ compared to unstimulated control cells
Protocol: For flow cytometry, Jurkat T cells (1×10^6) stimulated with PMA (50 ng/ml), ionomycin (1 µg/ml), and CQ (100 µM) were harvested and suspended in culture medium containing 1% BSA for blocking at room temperature for 1 hour. Afterwards, the cells were further reacted with fluorescein isothiocyanate-labeled LAG-3 binding peptide (10 µM) at 4°C for 1 hour. After washing several times, 300 µl of cell suspension suspended in phosphate buffer was applied to Attune NxT flow cytometry (Thermo Fisher Scientific).
as §1

[5] = system: MC38 mouse colon cancer cells; assay: In-vivo antitumor therapy, syngeneic MC38 mouse tumor model; parameters: species or system C57BL/6 mice; details: compared to control group and phosphate buffer group; 10 mg/kg; peptide intravenously 6 times, antibody intraperitoneally 3 times
Protocol: 6-8-week-old C57BL/6 mice were purchased. Mice were bred and kept under the guidelines of the Institutional Animal Care and Use Committee (IACUC) of Kyungpook National University (2023-0184). Tumors were injected into the lower right flank of mice. For in-vivo antitumor treatment, mice were randomly selected and grouped when tumor size reached approximately 100-150 mm^3. Thereafter, the peptide was injected intravenously three times a week for two weeks at a dose of 10 mg/kg, and similarly the antibody was injected intraperitoneally three times at the same dose. Tumor size was measured using a digital caliper, and tumor volume was calculated using the formula (V = length × width^2 × 0.52) (where length (L) is the longest dimension, and width (W) is the shortest dimension, parallel to the mouse body). All mice were checked for ulcer severity after treatment, treatment was terminated when the tumor size reached approximately 3000 mm^3, and the mice were sacrificed.
To identify the anticancer effect in a syngeneic mouse tumor model, LAG-3 binding peptide was administered alone or in combination with PD-L1 antibody to mice in which tumors were induced using MC38 mouse colon cancer cells (FIG. 9a). […]

[6] = biological target: T2, recombinant LAG-3 protein (Homo sapiens, UniProt P18627); assay: Pull-down with biotin-peptide and streptavidin beads, immunoblotting; recombinant protein; type: binding; details: biotin-labeled peptides, compared to the control group
T2 construct: purchased Acro Biosystems
T2 sequence (P18627 23-450 limits assumed): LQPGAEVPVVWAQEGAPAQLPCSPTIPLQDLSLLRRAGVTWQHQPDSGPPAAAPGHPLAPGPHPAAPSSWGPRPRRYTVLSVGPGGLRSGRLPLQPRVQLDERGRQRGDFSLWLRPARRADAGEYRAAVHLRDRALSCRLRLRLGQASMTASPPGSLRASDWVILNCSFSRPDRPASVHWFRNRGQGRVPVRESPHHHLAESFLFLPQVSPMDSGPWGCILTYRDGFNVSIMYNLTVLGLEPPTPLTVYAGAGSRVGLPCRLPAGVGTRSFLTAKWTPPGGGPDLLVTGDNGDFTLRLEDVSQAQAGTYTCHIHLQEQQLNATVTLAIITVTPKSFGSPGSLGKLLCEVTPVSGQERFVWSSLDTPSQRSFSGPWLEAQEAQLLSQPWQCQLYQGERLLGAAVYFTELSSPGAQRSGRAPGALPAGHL
Protocol: (§2) The binding specificity of the LAG-3 binding peptide was measured by pull-down analysis. After pull-down with LAG-3 binding peptide using human recombinant LAG-3 protein, it was applied to immunoblotting using LAG-3 antibody. In the same manner, cell lysates with LAG-3 overexpressed were […] using human LAG-3 plasmid DNA and then subjected to immunoblotting using LAG-3 antibodies.

[7] = biological target: T3, cell lysate overexpressing LAG-3 (Homo sapiens, UniProt P18627); assay: Pull-down with biotin-peptide and streptavidin beads, immunoblotting; cell lysate; type: binding; details: cell lysate overexpressing LAG-3, biotin-labeled peptides; compared to the control group
T3 construct: GFP; host or cells: HEK-293T
T3 sequence (P18627 23-525): T1 sequence (P18627 23-525)
Protocol: as §2

Jurkat T cells = assay: T-cell activation assay (IL-2 ELISA); type: cell-based, human; details: stimulated Jurkat T cells under co-culture of HepG2 cells, HepG2 cell culture medium, or recombinant FGL-1 (10 µg/ml); peptide 50 µM, antibody 10 µg/ml; 24 hours
Protocol: Jurkat T cells (1×10^6) were inoculated into a T25 flask and stimulated for 24 hours using PMA (50 ng/ml), ionomycin (1 µg/ml), and CQ (100 µM). HepG2 cells (5×10^3) were inoculated in a 96-well plate to induce secretion of FGL-1 for 48 hours. To co-culture the two types of cells, stimulated Jurkat T cells (2.5×10^4) were mixed with HepG2 at a ratio of 1:5. Similarly, for indirect co-culture, stimulated Jurkat T cells (2.5×10^4) were mixed with HepG2 cell culture medium. Finally, to observe the direct effect, stimulated Jurkat T cells (2.5×10^4) were treated with recombinant FGL-1 (10 µg/ml) protein. […] Afterwards, culture was carried out for an additional 24 hours for reaction. Control peptides were also used for comparison. After each culture time, the supernatant was harvested, and IL-2 secretion was measured using an ELISA kit for measuring human IL-2.
Investigation was made on whether the interaction between FGL-1 secreted from HepG2 hepatoma cells and LAG-3 of T cells inhibits T cell activity and, if so, whether it is blocked by a LAG-3 binding peptide. For this purpose, in the first experiment, Jurkat T cells were cultured with stimulation for 24 hours using PMA, ionomycin, and CQ. HepG2 cells were cultured in 96-well plates for 48 hours for FGL-1 secretion. […]

LAG-3 [8] = biological target: T1, LAG-3; assay: Phage binding ELISA on LAG-3-transfected or non-transfected cells; type: cell-based; parameters: GFP; host or cells: HEK-293T; details: phage clone 3 among 13 selected phage clones; transfected or non-transfected Hek-293T cells; OD 450 nm
Protocol: Hek-293T cells (2.5×10^4) were seeded in a 96-well plate and transfected with LAG-3 plasmid. Culture was performed for 48 hours. Non-transfected Hek-293T cells were used as a control group. Plates were blocked with 10 mg/ml BSA for 1 hour at room temperature. After washing the wells six times with Tris-buffered saline-Tween 20 (0.1%), 100 µl of phage clones (1×10^9 pfu/well) were added and reacted at 4°C for 1 hour. After washing, horse-radish peroxidase (HRP)-conjugated T7 tail fiber antibody (diluted 1:10,000 in blocking buffer) was added and reacted at room temperature for 1 hour. After washing the plate six more times, a substrate consisting of 3,3',5,5'-tetramethylbenzidine was added and reacted at room temperature for 10-15 minutes. The reaction was finally stopped by adding 100 µl of 2 M H2SO4 (stop solution), and the plates were analyzed at 450 nm with a microplate reader.

detection of LAG-3 protein after pull-down [6] | detection of LAG-3 proteins after pull-down [7] | cell binding by phage binding ELISA (LAG-3 [8]) | SMILES | binding of peptide to LAG-3 expressing cells (LAG-3 [1]) | binding of peptide after LAG-3 blocking antibody (LAG-3 [2]) | binding strength of peptide after LAG-3 blocking antibody (LAG-3 [3]) | binding of peptide to stimulated Jurkat T cells (LAG-3 [4]) | cancer growth, single administration [5] | IL-2 secretion (Jurkat T cells)
– | – | – | CC[C@H](C)[C@@H]1NC(=O)[C@@H](N)CSSC[C@@H](C(=O)O)NC(=O)[C@H](C(C)C)NC(=O)[C@H](C)NC(=O)[C@@H]2CCCN2C(=O)[C@H](CC(=O)O)NC(=O)[C@H](CC(N)=O)NC(=O)[C@H](CCCNC(=N)N)NC1=O [LAG3Pep-1] | bind more strongly | reduced | reduced | more LAG-3Pep-1 and LAG-3Pep-2 peptides were bound | – | –
more detection of LAG-3 protein | more LAG-3 proteins were detected | highest level of binding | CC(C)C[C@H](NC(=O)[C@@H](NC(=O)[C@H](CO)NC(=O)[C@@H](N)CS)C(C)C)C(=O)N[C@@H](CC(N)=O)C(=O)N[C@@H](C)C(=O)N[C@@H](CO)C(=O)NCC(=O)N[C@@H](CS)C(=O)O [LAG3Pep-2] | bind more strongly | reduced | reduced | more LAG-3Pep-1 and LAG-3Pep-2 peptides were bound | partially inhibited | significantly increased
